Results reported in patent publication US20080261898A1, “COMPOSITION AND METHOD FOR CANCER TREATMENT AND PREVENTION” (priority 2007, published 2008).

What was measured:
LNCaP cells [1] = test: Apoptosis, Annexin V flow cytometry, LNCaP cells; type: cell-based, human; conditions: 72 hr
Method: (§1) AC620 was incubated with DU-145 cells and LNCaP cells at various concentrations (0, 0.1, 0.5, 1, 5 μM) for 72 hr. The effect of AC620 on apoptosis of DU-145 cells and LNCaP cells was assessed. The cells were washed in 1×PBS and resuspended in binding buffer (0.01M Hepes pH 7.4, 0.14M NaCl, 2.5 mM CaCl2), stained with Annexin V conjugated with APC (Pharmingen) and then subjected to flow cytometry analysis using FACS Caliber (BD Biosciences, San Jose, Calif.).

DU-145 cells [2] = test: BrdU based cell proliferation assay, DU-145 cells; design: species or system human
Method: (§2) AC620 was incubated with hormone-refractory prostate cancer cell line DU-145 cells and hormone-responsive prostate cancer cell line LNCaP cells at various concentrations (0, 0.1, 0.5, 1, 5 μM) for 72 hr. LNCaP cells were maintained in RPMI 1640 medium (PAA Laboratories, Pashing, Austria) supplemented with 10% fetal calf serum (FCS) (Sigma, St. Louis, Mo.). The effect of AC620 on proliferation of DU-145 cells and LNCaP cells was determined by using a non-radioactive BrdU based cell proliferation assay kit (Roche, Switzerland) according to manufacturer's protocol. BrdU incorporation into the cellular DNA was determined by measuring the absorbance at 450 nm and 690 nm on an ELISA plate reader.
as §2, with “0 (Control) and” for “various concentrations (0, 0.1, 0.5, 1,”, “μM” for “μM)”, “for 24, 48 and” for “for”, “hr.” for “hr. LNCaP cells were maintained in RPMI 1640 medium (PAA Laboratories, Pashing, Austria) supplemented with 10% fetal calf serum (FCS) (Sigma, St. Louis, Mo.).”

VEGF = VEGF expression in xenograft tumor samples, immunohistochemistry; type: in vivo, mouse; conditions: 1 mg/kg s.c. twice a week, 30 days
Method: (§3) 8-12 week old athymic nude mice (Jackson Laboratories, Bar Harbor, Me., US) were randomly assigned to Control (n=10) and Treatment (n=10) groups. Tumor xenografts were generated by injecting DU-145 cells (4×10^6) subcutaneously into the mice (Day 1). 1 mg/kg body weight of AC620 or PBS (Control) was administrated to the mice by subcutaneous injection starting at the time of tumor implantation (Day 1) and the mice were treated twice a week. Tumors were measured periodically. At Day 30, the mice were sacrificed. Half of each tumor was processed for immunohistochemical analysis and the other half was frozen for subsequent protein and RNA analysis.
(§4) Xenograft mouse model was generated and AC620 or PBS (Control) was administrated to the transplanted mice for 30 days as described above. After the mice were sacrificed, immunohistochemical analysis of the tumor samples was performed using VEGF and VEGF R2 antibodies with a semi-automatic system Ventana ES (Ventana Inc, Tucson, Ariz.). The specimens were viewed with an Olympus BX51 microscope. Expression of VEGF in tumor samples at RNA level was measured by RT-PCR.

HT-29 cells = test: Apoptosis, Annexin V, HT-29 cells; type: cell-based; conditions: 72 hr
Method: as §1
AC620 was incubated with metastatic colorectal cancer cell line HT-29 cells at various concentrations (0, 0.1, 0.5, 1, 4 μM) for 72 hr. The effect of AC620 on apoptosis of HT-29 cells was assessed by Annexin V stating as described above.

DU-145 cells [3] = test: Apoptosis, Annexin V flow cytometry, DU-145 cells; type: cell-based, human; conditions: 72 hr
Method: as §1

DU-145 cells [4] = test: Viable cells, Annexin-V staining and flow cytometry, DU-145 cells; type: cell-based, human; conditions: 72 hr
Method: (§5) AC620 was incubated with DU-145 cells, LNCaP cells and primary human prostate endothelial cells at high concentrations (0, 5, 100, 500, 1000 μM) for 72 hr. The number of viable cells was measured by Annexin-V staining followed by flow cytometry analysis.

p21 = p21 expression in xenograft tumor samples, immunoblotting; type: in vivo, mouse
Method: as §3
Xenograft mouse model was generated and AC620 or PBS (Control) was administrated to the transplanted mice for 30 days as described above. After the mice were sacrificed, immunoblotting analysis of the tumor samples was performed using Bcl-2 and p21 antibodies as described above.

[5] = tested on: primary human prostate endothelial cells; test: Viable cells, Annexin-V staining and flow cytometry, primary human prostate endothelial cells; type: cell-based; conditions: up to the highest concentration, 1000 μM, 72 hr
Method: as §5

LNCaP cells [6] = test: Viable cells, Annexin-V staining and flow cytometry, LNCaP cells; type: cell-based, human; conditions: 72 hr
Method: as §5

VEGF RNA = VEGF RNA expression in xenograft tumor samples, RT-PCR; type: in vivo, mouse; conditions: 30 days treatment
Method: as §3, §4

CDK1 = CDK1 expression in xenograft tumor samples, immunoblotting; type: in vivo, mouse
Method: as §3
Xenograft mouse model was generated and AC620 or PBS (Control) was administrated to the transplanted mice for 30 days as described above. After the mice were sacrificed, immunoblotting analysis of the tumor samples was performed using CDK1 and CDK2 antibodies as described above.

CC1OC(OCC2OC(Oc3c(-c4ccc(O)c(O)c4)oc4cc(O)c(O)cc4c3=O)C(O)C(O)C2O)C(O)C(O)C1O (stereo not shown) [AC620]
apoptosis increased, LNCaP cells (LNCaP cells [1]; 0.1 μm): 46% | apoptosis increased, LNCaP cells (LNCaP cells [1]; 0.5 μm): 81% | apoptosis increased, LNCaP cells (LNCaP cells [1]; 1 μm): 154% | apoptosis increased, LNCaP cells (LNCaP cells [1]; 5 μm): 177% | decrease in cell proliferation of DU-145 cells (DU-145 cells [2]; 5 μM, after 24 hr): 6% | decrease in cell proliferation of DU-145 cells (DU-145 cells [2]; 5 μM, after 48 hrs): 31% | decrease in cell proliferation of DU-145 cells (DU-145 cells [2]; 5 μM, after 72 hr (time study)): 86% | decrease in cell proliferation of DU-145 cells (DU-145 cells [2]; 0.1 μm, 72 hr): 37% | decrease in cell proliferation of DU-145 cells (DU-145 cells [2]; 0.5 μm, 72 hr): 58% | decrease in cell proliferation of DU-145 cells (DU-145 cells [2]; 1 μm, 72 hr): 72% | decrease in cell proliferation of DU-145 cells (DU-145 cells [2]; 5 μm, 72 hr (dose study)): 84% | expression of VEGF in tumors (VEGF): completely abolished | apoptosis increased, HT-29 cells (HT-29 cells; 0.1 μm): 10% | apoptosis increased, HT-29 cells (HT-29 cells; 0.5 μm): 87% | apoptosis increased, HT-29 cells (HT-29 cells; 1 μm): 220% | apoptosis increased, HT-29 cells (HT-29 cells; 5 μm): 267% | apoptosis increased, DU-145 cells (DU-145 cells [3]; 0.1 μm): 46% | apoptosis increased, DU-145 cells (DU-145 cells [3]; 0.5 μm): 115% | apoptosis increased, DU-145 cells (DU-145 cells [3]; 1 μm): 285% | apoptosis increased, DU-145 cells (DU-145 cells [3]; 5 μm): 389% | viable DU-145 cells decreased (DU-145 cells [4]; 5 μm): 67% | viable DU-145 cells decreased (DU-145 cells [4]; 100 μm): 93% | viable DU-145 cells decreased (DU-145 cells [4]; 500 μm): 94% | viable DU-145 cells decreased (DU-145 cells [4]; 1000 μm): 97% | p21 expression reduced in tumor samples (p21; Treatment 1): 0% | p21 expression reduced in tumor samples (p21; Treatment 2): 70% | p21 expression reduced in tumor samples (p21; Treatment 3): 60% | p21 expression reduced in tumor samples (p21; Treatment 4): 90% | viability of primary human prostate endothelial cells [5]: remained viable | viable LNCaP cells decreased (LNCaP cells [6]; 5 μm): 42% | viable LNCaP cells decreased (LNCaP cells [6]; 100 μm): 67% | viable LNCaP cells decreased (LNCaP cells [6]; 500 μm): 92% | viable LNCaP cells decreased (LNCaP cells [6]; 1000 μm): 96% | estimated decrease of VEGF RNA expression level in tumor samples (VEGF RNA): ~90% | reduction of CDK1 expression in tumor samples (CDK1; Treatment 1): approximately 80% | reduction of CDK1 expression in tumor samples (CDK1; Treatment 2): > 95% | reduction of CDK1 expression in tumor samples (CDK1; Treatment 3): ~90%
